Conditions: XRD

O=C(O)c1cn(C2CC2)c2cc(N3CCNCC3)c(F)cc2c1=O [pure ciprofloxacin, Ciprofloxacin]
average crystallite size / particle size by Scherrer's equation: 3.22 nm

— patent US9555009B2, “Ciprofloxacin loaded diethylaminoethyl cellulose nanoparticles” (priority 2014, dated 2017)
